Laboratory results as given in patent US4965280A, “Antifungal carbinols” (E. I. Du Pont de Nemours and Company, priority 1989, dated 1990).

What was measured:
Test in all cases: Test D
WILLMS SOYBEANS = assay type: in vivo, Glycine max
VELVETLEAF = assay type: in vivo, Abutilon theophrasti
Experimental: (§1) The Corn and Sorghum Herbicide Test included the following species in both the preemergence and postemergence evaluations:
(§2) Postemergence plantings were grown in Sassafras sandy loam soil. Corn and soybeans were grown in separate 25 cm diameter containers. Sorghum and the seven grass weed species were grown in two 18 cm diameter containers, 4 species per container. The seven broadleaf weed species were also grown in two 18 cm diameter containers, 4 species in one container, 3 species in the second container. One additional planting of corn in an 18 cm diameter container was made. The soil surface of this additional container of corn was covered with the absorbent, perlite, before spray treatment so that test chemicals would enter the plant only via the foliage. The plants were grown 10-21 days, dependent upon the species and then sprayed postemergence with the test chemicals dissolved in a nonpytotoxic solvent.
(§3) Preemergence plantings were grown in fertilized Tama silt loam soil. These plantings are identical to those described in the postemergence section, with the exception of the corn planting having perlite covering the soil surface. These plantings were made the day of or the day before spraying the test chemicals dissolved in a nonphytotoxic solvent.
(§4) Treated plants and controls were maintained in the greenhouse for 2 to 4 weeks. Visual planting response ratings were made on a percentage scale of 0 to 100 in comparison with a control where 0=no injury, and 100=death.

COCKLEBUR = assay type: in vivo, Xanthium pensylvanicum
LADY SMARTWEED = assay type: in vivo, Polygonum persicaris
Experimental: as §1, §2, §3, §4

LAMBSQUARTER = assay type: in vivo, Chenopodium album
REDROOT PIGWEED = assay type: in vivo, Amaranthus retroflexus

**Q.** For C=C(c1ccccc1)C(O)(Cn1cncn1)c1ccc(Cl)cc1Cl (stereo not drawn) [Example 50, 2-(2,4-Dichlorophenyl)-3-phenyl-1-(1H-1,2,4-triazol-1-yl)-3-buten-2-ol], which plant response (WILLMS SOYBEANS; POSTEMERGENCE 0250 GM/HA) is on record?
**A.** Its plant response is 35%.

**Q.** What about the plant response (WILLMS SOYBEANS; POSTEMERGENCE 0500 GM/HA) of the same compound?
**A.** Its plant response is 65%.

**Q.** What about the plant response (WILLMS SOYBEANS; PREEMERGENCE 0064 GM/HA) of the same compound?
**A.** Its plant response is 0%.

**Q.** And the plant response (WILLMS SOYBEANS; PREEMERGENCE 0125 GM/HA)?
**A.** The plant response was 0%.

**Q.** What about the plant response (WILLMS SOYBEANS; PREEMERGENCE 0250 GM/HA) of the same compound?
**A.** The plant response was 0%.

**Q.** What about the plant response (WILLMS SOYBEANS; PREEMERGENCE 0500 GM/HA) of the same compound?
**A.** Its plant response is 20%.

**Q.** And the plant response (VELVETLEAF; POSTEMERGENCE 0250 GM/HA)?
**A.** The plant response was 0%.

**Q.** And the plant response (VELVETLEAF; POSTEMERGENCE 0500 GM/HA)?
**A.** Its plant response is 25%.

**Q.** What about the plant response (VELVETLEAF; PREEMERGENCE 0064 GM/HA) of the same compound?
**A.** Its plant response is 0%.

**Q.** And the plant response (VELVETLEAF; PREEMERGENCE 0125 GM/HA)?
**A.** The plant response was 25%.

**Q.** And the plant response (VELVETLEAF; PREEMERGENCE 0250 GM/HA)?
**A.** Its plant response is 40%.

**Q.** And the plant response (VELVETLEAF; PREEMERGENCE 0500 GM/HA)?
**A.** The plant response was 65%.

**Q.** What about the plant response (COCKLEBUR; POSTEMERGENCE 0250 GM/HA) of the same compound?
**A.** The plant response was 25%.

**Q.** What about the plant response (COCKLEBUR; POSTEMERGENCE 0500 GM/HA) of the same compound?
**A.** Its plant response is 40%.

**Q.** And the plant response (COCKLEBUR; PREEMERGENCE 0064 GM/HA)?
**A.** The plant response was 0%.

**Q.** And the plant response (COCKLEBUR; PREEMERGENCE 0125 GM/HA)?
**A.** Its plant response is 0%.

**Q.** And the plant response (COCKLEBUR; PREEMERGENCE 0250 GM/HA)?
**A.** Its plant response is 0%.

**Q.** And the plant response (COCKLEBUR; PREEMERGENCE 0500 GM/HA)?
**A.** The plant response was 25%.

**Q.** What about the plant response (LADY SMARTWEED; POSTEMERGENCE 0250 GM/HA) of the same compound?
**A.** Its plant response is 30%.

**Q.** What about the plant response (LADY SMARTWEED; POSTEMERGENCE 0500 GM/HA) of the same compound?
**A.** The plant response was 40%.

**Q.** And the plant response (LADY SMARTWEED; PREEMERGENCE 0064 GM/HA)?
**A.** The plant response was 0%.

**Q.** What about the plant response (LADY SMARTWEED; PREEMERGENCE 0125 GM/HA) of the same compound?
**A.** The plant response was 0%.

**Q.** What about the plant response (LADY SMARTWEED; PREEMERGENCE 0250 GM/HA) of the same compound?
**A.** Its plant response is 20%.

**Q.** And the plant response (LADY SMARTWEED; PREEMERGENCE 0500 GM/HA)?
**A.** Its plant response is 40%.

**Q.** What about the plant response (LAMBSQUARTER; POSTEMERGENCE 0250 GM/HA) of the same compound?
**A.** The plant response was 65%.

**Q.** And the plant response (LAMBSQUARTER; POSTEMERGENCE 0500 GM/HA)?
**A.** Its plant response is 80%.

**Q.** And the plant response (LAMBSQUARTER; PREEMERGENCE 0064 GM/HA)?
**A.** Its plant response is 0%.

**Q.** What about the plant response (LAMBSQUARTER; PREEMERGENCE 0125 GM/HA) of the same compound?
**A.** The plant response was 35%.

**Q.** What about the plant response (LAMBSQUARTER; PREEMERGENCE 0250 GM/HA) of the same compound?
**A.** The plant response was 75%.

**Q.** And the plant response (LAMBSQUARTER; PREEMERGENCE 0500 GM/HA)?
**A.** Its plant response is 90%.

**Q.** And the plant response (REDROOT PIGWEED; POSTEMERGENCE 0250 GM/HA)?
**A.** The plant response was 65%.

**Q.** And the plant response (REDROOT PIGWEED; POSTEMERGENCE 0500 GM/HA)?
**A.** Its plant response is 95%.

**Q.** And the plant response (REDROOT PIGWEED; PREEMERGENCE 0064 GM/HA)?
**A.** The plant response was 0%.

**Q.** What about the plant response (REDROOT PIGWEED; PREEMERGENCE 0125 GM/HA) of the same compound?
**A.** Its plant response is 40%.

**Q.** What about the plant response (REDROOT PIGWEED; PREEMERGENCE 0250 GM/HA) of the same compound?
**A.** The plant response was 85%.

**Q.** And the plant response (REDROOT PIGWEED; PREEMERGENCE 0500 GM/HA)?
**A.** The plant response was 100%.
